The results in this text go back to article PMC4295349, “Synthetic Antimicrobial Peptides Exhibit Two Different Binding Mechanisms to the Lipopolysaccharides Isolated from Pseudomonas aeruginosa and Klebsiella pneumoniae” (International Journal of Medicinal Chemistry, 2014).

Series [1] deals with LPS isolated from P. aeruginosa or K. pneumoniae. Put plainly: Precipitation of AMP-LPS mixtures prepared for CD. The format is physicochemical. The settings on record: 350 μL stock LPS + 50 μL stock peptide, phosphate buffer; CD spectra could not be obtained. How it is done:
(§1) Peptide solutions were prepared by dissolving approximately 2 mg of AMPs 70, 74, 75, 79, or 80 in 1.0 mL of phosphate buffer. […] For the LPS liposome studies 350 μL of stock LPS solution was mixed with 50 μL of stock peptide solution. CD spectroscopy is a sensitive technique, so it is commonly used to monitor conformational changes in peptides and proteins. […] All CD spectra were obtained by acquiring 8 scans using a 0.1 mm cylindrical quartz cell with a spectral range of 260 to 195 nm (at wavelengths below 195 nm the HTV exceeded 400, and therefore data collection was terminated at 195 nm) and a scanning rate of 20 nm/min. Acquisition parameters were bandwidth 1 nm, data pitch 0.2 nm, response time 2.0 s, and 5 mdeg sensitivity. Spectra were collected at room temperature (298 K). Contributions from LPS were eliminated by subtracting from the corresponding AMP-LPS solutions. All analyses of CD spectra were conducted after smoothing with a means-movement function.

Series [2] deals with P. aeruginosa PAO1. The settings on record: for in vitro inhibitory activity: against P. aeruginosa.
The test system of series [3] is P. aeruginosa PAO1. Format: cell-based, Pseudomonas aeruginosa. The text has this:
Table 3 In vitro minimum inhibitory concentration (MIC) and minimum bactericide concentration (MBC) activity against K. pneumonia and P. aeruginosa. | column: P. aeruginosa PAO1 / MBC (µg/mL)/(μM)

The test system of series [4] is K. pneumoniae BAMC 07-18. The settings on record: for in vitro inhibitory activity: against K. pneumoniae.
In series [5] the test system is K. pneumoniae BAMC 07-18. The format is cell-based, Klebsiella pneumoniae. The text has this:
Table 3 In vitro minimum inhibitory concentration (MIC) and minimum bactericide concentration (MBC) activity against K. pneumonia and P. aeruginosa. | column: K. pneumoniae BAMC 07-18 / MBC (μg/mL)/(μM)

Series [6] is classed as physicochemical. How it is done: as §1
Setting [7] is: P. aeruginosa PAO1, light face value.
Where [8] appears, read: K. pneumoniae BAMC 07-18, light face value.

Like-named read-outs stand apart in the source and are kept apart here. Where a SMILES comes first, the peptide text is derived from it. [ ]: non-standard residue; d: D form. ξ: configuration not given here. Oic = O=C(O)[C@@H]1C[C@@H]2CCCC[C@@H]2N1; Oic(3aξ,7aξ) = O=C(O)[C@@H]1CC2CCCCC2N1; Tic = O=C(O)[C@@H]1Cc2ccccc2CN1; Orn = NCCC[C@H](N)C(=O)O; Dap = NC[C@H](N)C(=O)O

In the case of `CC(C)C[C@H](NC(=O)[C@@H](N)CN)C(=O)N1Cc2ccccc2C[C@H]1C(=O)N1[C@H](C(=O)N[C@@H](CN)C(=O)N2Cc3ccccc3C[C@H]2C(=O)N2[C@H](C(=O)N[C@@H](Cc3ccccc3)C(=O)N3Cc4ccccc4C[C@H]3C(=O)N3[C@H](C(=O)N[C@@H](CN)C(=O)N4Cc5ccccc5C[C@H]4C(=O)N4[C@H](C(=O)N[C@@H](Cc5ccccc5)C(=O)N5Cc6ccccc6C[C@H]5C(=O)N5[C@H](C(=O)N[C@@H](CN)C(=O)N6Cc7ccccc7C[C@H]6C(=O)N6[C@H](C(=O)N[C@@H](CN)C(=O)N[C@@H](CN)C(=O)N[C@@H](CN)C(=O)N[C@@H](CN)C(N)=O)C[C@@H]7CCCC[C@@H]76)C[C@@H]6CCCC[C@@H]65)C[C@@H]5CCCC[C@@H]54)C[C@@H]4CCCC[C@@H]43)C[C@@H]3CCCC[C@@H]32)C[C@@H]2CCCC[C@@H]21` [AMP 72] (H-[Dap]L[Tic][Oic][Dap][Tic][Oic]F[Tic][Oic][Dap][Tic][Oic]F[Tic][Oic][Dap][Tic][Oic][Dap][Dap][Dap][Dap]-NH2), the “precipitation in the presence of either LPS” value in series [1] is given as “precipitation of uncharacterized AMP-LPS complexes”. The MIC (commonly the smallest concentration in the dilution series that meets the test's criterion for growth inhibition) is 50 µg/mL in series [2] (setting [7]), 16.8 µM in series [2] (PAO1), 33.6 µM in series [4] (BAMC 07-18) and 100 µg/mL in series [4] (setting [8]). Besides, the MBC (in general, the lowest tested concentration that kills the bacteria rather than only halting them) was found to be 100 µg/mL in series [3] (setting [7]), 33.6 µM in series [3] (PAO1), 33.6 µM in series [5] (BAMC 07-18) and 100 µg/mL in series [5] (setting [8]).
As to `CC(C)C[C@H](NC(=O)[C@@H](N)CCCCN)C(=O)N1Cc2ccccc2C[C@H]1C(=O)N1[C@H](C(=O)N[C@@H](CCCCN)C(=O)N2Cc3ccccc3C[C@H]2C(=O)N2[C@H](C(=O)N[C@@H](Cc3ccccc3)C(=O)N3Cc4ccccc4C[C@H]3C(=O)N3[C@H](C(=O)N[C@@H](CCCCN)C(=O)N4Cc5ccccc5C[C@H]4C(=O)N4[C@H](C(=O)N[C@@H](Cc5ccccc5)C(=O)N5Cc6ccccc6C[C@H]5C(=O)N5[C@H](C(=O)N[C@@H](CCCCN)C(=O)N6Cc7ccccc7C[C@H]6C(=O)N6[C@H](C(=O)N[C@@H](CCCCN)C(=O)N[C@@H](CCCNC(=N)N)C(N)=O)C[C@@H]7CCCC[C@@H]76)C[C@@H]6CCCC[C@@H]65)C[C@@H]5CCCC[C@@H]54)C[C@@H]4CCCC[C@@H]43)C[C@@H]3CCCC[C@@H]32)C[C@@H]2CCCC[C@@H]21` [AMP 22] (H-KL[Tic][Oic]K[Tic][Oic]F[Tic][Oic]K[Tic][Oic]F[Tic][Oic]K[Tic][Oic]KR-NH2), the MIC in series [2] (PAO1) and in series [4] (BAMC 07-18) was over 100 µg/mL throughout. Moreover, the “in vitro inhibitory activity” value in series [2] and in series [4] was at least 100 µg/mL throughout. Further, the MBC in series [3] (PAO1) and in series [5] (BAMC 07-18) was over 100 µg/mL each time. Also, the “solubility in phosphate buffer at approximately 2 mg in 1.0 mL” value (“solubility in phosphate buffer” below) in series [6] was “solubility issues”.
As to `CC(C)C[C@H](NC(=O)[C@@H](N)CCCCN)C(=O)N1Cc2ccccc2C[C@H]1C(=O)N1C2CCCCC2C[C@H]1C(=O)NCC(=O)N[C@@H](CCCCN)C(=O)N1Cc2ccccc2C[C@H]1C(=O)N1C2CCCCC2C[C@H]1C(=O)NCC(=O)N[C@@H](Cc1ccccc1)C(=O)N1Cc2ccccc2C[C@H]1C(=O)N1C2CCCCC2C[C@H]1C(=O)NCC(=O)N[C@@H](CCCCN)C(=O)N1Cc2ccccc2C[C@H]1C(=O)N1C2CCCCC2C[C@H]1C(=O)NCC(=O)N[C@@H](Cc1ccccc1)C(=O)N1Cc2ccccc2C[C@H]1C(=O)N1C2CCCCC2C[C@H]1C(=O)NCC(=O)N[C@@H](CCCCN)C(=O)N1Cc2ccccc2C[C@H]1C(=O)N1C2CCCCC2C[C@H]1C(=O)N[C@@H](CCCCN)C(=O)N[C@@H](CCCCN)C(=O)N[C@@H](CCCCN)C(=O)N[C@@H](CCCCN)C(N)=O` (stereo partly shown) [AMP 76] (H-KL[Tic][Oic(3aξ,7aξ)]GK[Tic][Oic(3aξ,7aξ)]GF[Tic][Oic(3aξ,7aξ)]GK[Tic][Oic(3aξ,7aξ)]GF[Tic][Oic(3aξ,7aξ)]GK[Tic][Oic(3aξ,7aξ)]KKKK-NH2), the MIC in series [2] (setting [7]) was found to be 50 µg/mL; in series [2] (PAO1), 13.9 µM; in series [4] (BAMC 07-18), 13.9 µM; in series [4] (setting [8]) it was 50 µg/mL. In series [2], the “in vitro inhibitory activity” value turned out to be 50 µg/mL. For the same compound, the MBC in series [3] (setting [7]) came to 50 µg/mL; in series [3] (PAO1) it was 13.9 µM; in series [5] (BAMC 07-18), 13.9 µM; in series [5] (setting [8]) it was 50 µg/mL. Moreover, in series [6], the “solubility in phosphate buffer” value is recorded as “solubility issues”.
For the compound `CC(C)C[C@H](NC(=O)[C@@H](N)CCCCN)C(=O)N1Cc2ccccc2C[C@H]1C(=O)N1[C@H](C(=O)N[C@@H](CCCCN)C(=O)N2Cc3ccccc3C[C@H]2C(=O)N2[C@H](C(=O)N[C@@H](Cc3ccccc3)C(=O)NCC(=O)N3Cc4ccccc4C[C@H]3C(=O)N3[C@H](C(=O)N[C@@H](CCCCN)C(=O)N4Cc5ccccc5C[C@H]4C(=O)N4[C@H](C(=O)N[C@@H](Cc5ccccc5)C(=O)NCC(=O)N5Cc6ccccc6C[C@H]5C(=O)N5[C@H](C(=O)N[C@@H](CCCCN)C(=O)N6Cc7ccccc7C[C@H]6C(=O)N6[C@H](C(=O)N[C@@H](CCCCN)C(=O)N[C@@H](CCCCN)C(=O)N[C@@H](CCCCN)C(=O)N[C@@H](CCCCN)C(N)=O)C[C@@H]7CCCC[C@@H]76)C[C@@H]6CCCC[C@@H]65)C[C@@H]5CCCC[C@@H]54)C[C@@H]4CCCC[C@@H]43)C[C@@H]3CCCC[C@@H]32)C[C@@H]2CCCC[C@@H]21` [AMP 77] (H-KL[Tic][Oic]K[Tic][Oic]FG[Tic][Oic]K[Tic][Oic]FG[Tic][Oic]K[Tic][Oic]KKKK-NH2), the MIC in series [2] (setting [7]) was 50 µg/mL; in series [2] (PAO1), 14.6 µM; in series [4] (BAMC 07-18) it was 14.6 µM; in series [4] (setting [8]), 50 µg/mL. Moreover, the “in vitro inhibitory activity” value in series [2] was 50 µg/mL. The minimum bactericidal concentration (MBC) in series [3] (setting [7]) was determined as 50 µg/mL; in series [3] (PAO1), 14.6 µM; in series [5] (BAMC 07-18) it was 29.2 µM; in series [5] (setting [8]) it was 100 µg/mL. Also, the “solubility in phosphate buffer” value in series [6] is “solubility issues”.
In the case of `CC(C)C[C@H](NC(=O)[C@@H](N)CCCCN)C(=O)N1Cc2ccccc2C[C@H]1C(=O)N1C2CCCCC2C[C@H]1C(=O)N[C@@H](CCCCN)C(=O)NCC(=O)N1Cc2ccccc2C[C@H]1C(=O)N1C2CCCCC2C[C@H]1C(=O)N[C@@H](Cc1ccccc1)C(=O)N1Cc2ccccc2C[C@H]1C(=O)N1C2CCCCC2C[C@H]1C(=O)N[C@@H](CCCCN)C(=O)NCC(=O)N1Cc2ccccc2C[C@H]1C(=O)N1C2CCCCC2C[C@H]1C(=O)N[C@@H](Cc1ccccc1)C(=O)N1Cc2ccccc2C[C@H]1C(=O)N1C2CCCCC2C[C@H]1C(=O)N[C@@H](CCCCN)C(=O)NCC(=O)N1Cc2ccccc2C[C@H]1C(=O)N1C2CCCCC2C[C@H]1C(=O)N[C@@H](CCCCN)C(=O)N[C@@H](CCCCN)C(=O)N[C@@H](CCCCN)C(=O)N[C@@H](CCCCN)C(N)=O` (stereo partly shown) [AMP 78] (H-KL[Tic][Oic(3aξ,7aξ)]KG[Tic][Oic(3aξ,7aξ)]F[Tic][Oic(3aξ,7aξ)]KG[Tic][Oic(3aξ,7aξ)]F[Tic][Oic(3aξ,7aξ)]KG[Tic][Oic(3aξ,7aξ)]KKKK-NH2), the minimum inhibitory concentration (MIC) in series [2] (setting [7]) amounted to 50 µg/mL; in series [2] (PAO1) it was 14.3 µM; in series [4] (BAMC 07-18), 14.3 µM; in series [4] (setting [8]), 50 µg/mL. The “in vitro inhibitory activity” value in series [2] and in series [4] was 50 µg/mL in each case. Besides, the MBC in series [3] (setting [7]) stood at 50 µg/mL; in series [3] (PAO1), 14.3 µM; in series [5] (BAMC 07-18), 28.6 µM; in series [5] (setting [8]), 100 µg/mL. Further, the “solubility in phosphate buffer” value in series [6] is recorded as “solubility issues”.
Consider `CC(C)C[C@H](NC(=O)[C@@H](N)CCCN)C(=O)N1Cc2ccccc2C[C@H]1C(=O)N1[C@H](C(=O)N[C@@H](CCCN)C(=O)N2Cc3ccccc3C[C@H]2C(=O)N2[C@H](C(=O)N[C@@H](Cc3ccccc3)C(=O)N3Cc4ccccc4C[C@H]3C(=O)N3[C@H](C(=O)N[C@@H](CCCN)C(=O)N4Cc5ccccc5C[C@H]4C(=O)N4[C@H](C(=O)N[C@@H](Cc5ccccc5)C(=O)N5Cc6ccccc6C[C@H]5C(=O)N5[C@H](C(=O)N[C@@H](CCCN)C(=O)N6Cc7ccccc7C[C@H]6C(=O)N6[C@H](C(=O)N[C@@H](CCCN)C(=O)N[C@@H](CCCN)C(=O)N[C@@H](CCCN)C(=O)N[C@@H](CCCN)C(N)=O)C[C@@H]7CCCC[C@@H]76)C[C@@H]6CCCC[C@@H]65)C[C@@H]5CCCC[C@@H]54)C[C@@H]4CCCC[C@@H]43)C[C@@H]3CCCC[C@@H]32)C[C@@H]2CCCC[C@@H]21` [AMP 71] (H-[Orn]L[Tic][Oic][Orn][Tic][Oic]F[Tic][Oic][Orn][Tic][Oic]F[Tic][Oic][Orn][Tic][Oic][Orn][Orn][Orn][Orn]-NH2), for which, in series [1], the “precipitation in the presence of either LPS” value was “precipitation of uncharacterized AMP-LPS complexes”. The minimal inhibitory concentration (MIC) worked out at 100 µg/mL in series [2] (setting [7]), 31.2 µM in series [2] (PAO1), 31.2 µM in series [4] (BAMC 07-18) and 100 µg/mL in series [4] (setting [8]).
